US4559323A, “A41030 Antibiotics” (Eli Lilly and Company, priority 1984, dated 1985)
≈ marks a conversion by molar mass, not a printed value.

Key:
Assay in all cases: Agar-dilution MIC
Assay type in all cases: cell-based
[1] = test system: Streptococcus sp. ATCC 10389; conditions: Table 18, 24 hours
Source text: The in vitro activity of antibiotic A41030 factors A and B against a number of representative aerobic, gram-positive bacteria, including Streptococcus sp. Group D, has been determined using a standard agar-dilution assay.

Streptococcus faecalis = conditions: Table 7; Streptococcus faecalis X66
Neisseria sp. = conditions: Table 10
Protocol: The test results are recorded in Table 10, which follows.

SMILES | MIC [1] [µg/mL] | MIC (Streptococcus faecalis) [µg/mL] | MIC (Neisseria sp.; strain L. Nance) [µg/mL] | MIC (Neisseria sp.; strain Mitchell) [µg/mL] | MIC (Neisseria sp.; strain Sanders) [µg/mL] | MIC (Neisseria sp.; strain Schultz) [µg/mL] | MIC (Neisseria sp.; strain Woods) [µg/mL]
N[C@H]1C(=O)N[C@@H]2Cc3ccc(c(Cl)c3)Oc3cc4cc(c3O)Oc3ccc(cc3Cl)[C@@H](O)[C@@H]3NC(=O)C(NC(=O)[C@@H]4NC(=O)[C@@H](NC2=O)c2cc(O)cc(c2)Oc2cc1ccc2O)c1ccc(O)c(c1)-c1c(O)cc(O)cc1[C@@H](C(=O)O)NC3=O [A41030 factor B] | 0.25 (≈ 0.209 µM) | – | – | – | – | – | –
NC1C(=O)NC2Cc3ccc(c(Cl)c3)Oc3cc4cc(c3O)Oc3ccc(cc3Cl)C(O)C3NC(=O)C(NC(=O)C4NC(=O)C(NC2=O)c2cc(O)cc(c2)Oc2cc1ccc2O)c1cc(Cl)c(O)c(c1)-c1c(O)cc(O)cc1C(C(=O)O)NC3=O (stereo not shown) [A41030 factor A] | – | < 0.5 | 4.0 (≈ 3.24 µM) | 4.0 (≈ 3.24 µM) | 1.0 (≈ 0.811 µM) | 8.0 (≈ 6.49 µM) | 4.0 (≈ 3.24 µM)
